# According to PubChem BioAssay (NCI):
#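 How tested: cells in 96-well plates exposed to compound for 48 hours at five concentrations. GI50: concentration for 50% inhibition of growth. TGI is the concentration that stops growth completely.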
# What was measured:
# Assay in all cases: growth of human tumour cells (NCI), 48 h
# [1] = test system: DU-145 prostate
# [2] = test system: HCT-116 colon
# [3] = test system: OVCAR-4 ovarian
# [4] = test system: K-562 leukemia
# [5] = test system: A498 renal
# [6] = test system: TK-10 renal
# [7] = test system: KM12 colon
# [8] = test system: UACC-257 melanoma
# [9] = test system: U251 CNS
# [10] = test system: SK-MEL-2 melanoma
# [11] = test system: M14 melanoma
# [12] = test system: RXF 393 renal
# [13] = test system: NCI-H23 lung
# [14] = test system: UACC-62 melanoma
# [15] = test system: SW-620 colon
# [16] = test system: HOP-62 NSCLC
# [17] = test system: CCRF-CEM leukemia
# [18] = test system: SNB-75 CNS
# [19] = test system: NCI-H226 lung
# [20] = test system: SNB-19 CNS
# [21] = test system: OVCAR-5 ovarian
# [22] = test system: MOLT-4 leukemia
# [23] = test system: CAKI-1 renal
# [24] = test system: A549 NSCLC
# [25] = test system: T-47D breast
# [26] = test system: COLO 205 colon
# [27] = test system: SF-268 CNS
# [28] = test system: RPMI-8226 leukemia
# [29] = test system: OVCAR-3 ovarian
# [30] = test system: NCI-H522 lung
# [31] = test system: HCC-2998 colon
# [32] = test system: SF-295 CNS
# [33] = test system: MALME-3M melanoma
# [34] = test system: HL-60(TB) leukemia
# [35] = test system: SN12C renal
# [36] = test system: MDA-MB-231 breast
# [37] = test system: 786-0 renal
# [38] = test system: BT-549 breast
# [39] = test system: SK-MEL-28 melanoma
# [40] = test system: MDA-MB-435
# [41] = test system: UO-31 renal
# [42] = test system: EKVX NSCLC
# [43] = test system: ACHN renal
# [44] = test system: SK-MEL-5 melanoma
# [45] = test system: NCI-H460 lung
# [46] = test system: MCF7 breast
# [47] = test system: OVCAR-8 ovarian
# [48] = test system: NCI/ADR-RES ovarian
# [49] = test system: SR leukemia
# [50] = test system: SK-OV-3 ovarian
# [51] = test system: HCT-15 colon
# [52] = test system: HT29 colon
# [53] = test system: IGROV1 ovarian
# [54] = test system: PC-3 prostate
# [55] = test system: LOX IMVI melanoma
# [56] = test system: SF-539 CNS
# [57] = test system: HS 578T breast
compound,measurement,setting,value
CCC(CC)COC(=O)[C@H](C)N[P@](=O)(OC[C@H]1O[C@@](C#N)(c2ccc3c(N)ncnn23)[C@H](O)[C@@H]1O)Oc1ccccc1,GI50,[1],8.44 µM
same,TGI,[1],> 100 µM
same,GI50,[2],2.24 µM
same,TGI,[2],30.2 µM
same,GI50,[3],3.02 µM
same,TGI,[3],66 µM
same,GI50,[4],0.597 µM
same,TGI,[4],> 100 µM
same,GI50,[5],0.359 µM
same,TGI,[5],8.57 µM
same,GI50,[6],9.85 µM
same,TGI,[6],> 100 µM
same,GI50,[7],15.3 µM
same,TGI,[7],> 100 µM
same,GI50,[8],2.73 µM
same,TGI,[8],15.7 µM
same,GI50,[9],15.9 µM
same,TGI,[9],> 100 µM
same,GI50,[10],0.97 µM
same,TGI,[10],4.51 µM
same,GI50,[11],1.95 µM
same,TGI,[11],12.2 µM
same,GI50,[12],2.8 µM
same,TGI,[12],23.3 µM
same,GI50,[13],2.59 µM
same,TGI,[13],12.1 µM
same,GI50,[14],2.56 µM
same,TGI,[14],11 µM
same,GI50,[15],1.92 µM
same,TGI,[15],> 100 µM
same,GI50,[16],6.34 µM
same,TGI,[16],> 100 µM
same,GI50,[17],3.51 µM
same,TGI,[17],51.6 µM
same,GI50,[18],2.75 µM
same,TGI,[18],91.6 µM
same,GI50,[19],7.61 µM
same,TGI,[19],49.1 µM
same,GI50,[20],15.7 µM
same,TGI,[20],> 100 µM
same,GI50,[21],40.2 µM
same,TGI,[21],> 100 µM
same,GI50,[22],2.79 µM
same,TGI,[22],31.2 µM
same,GI50,[23],4.19 µM
same,TGI,[23],> 100 µM
same,GI50,[24],47.7 µM
same,TGI,[24],> 100 µM
same,GI50,[25],1.82 µM
same,TGI,[25],> 100 µM
same,GI50,[26],2.46 µM
same,TGI,[26],18.4 µM
same,GI50,[27],4.29 µM
same,TGI,[27],> 100 µM
same,GI50,[28],1.02 µM
same,TGI,[28],10.6 µM
same,GI50,[29],2.35 µM
same,TGI,[29],18.5 µM
same,GI50,[30],1.29 µM
same,TGI,[30],27.3 µM
same,GI50,[31],5.39 µM
same,TGI,[31],> 100 µM
same,GI50,[32],31 µM
same,TGI,[32],> 100 µM
same,GI50,[33],2.08 µM
same,TGI,[33],6.91 µM
same,GI50,[34],0.701 µM
same,TGI,[34],8.62 µM
same,GI50,[35],7.73 µM
same,TGI,[35],> 100 µM
same,GI50,[36],5.46 µM
same,TGI,[36],81.3 µM
same,GI50,[37],6.08 µM
same,TGI,[37],> 100 µM
same,GI50,[38],9.62 µM
same,TGI,[38],50.7 µM
same,GI50,[39],2.83 µM
same,TGI,[39],11.8 µM
same,GI50,[40],4.53 µM
same,TGI,[40],25.1 µM
same,GI50,[41],41.3 µM
same,TGI,[41],> 100 µM
same,GI50,[42],19.1 µM
same,TGI,[42],> 100 µM
same,GI50,[43],18.3 µM
same,TGI,[43],> 100 µM
same,GI50,[44],5.24 µM
same,TGI,[44],17.5 µM
same,GI50,[45],4.83 µM
same,TGI,[45],> 100 µM
same,GI50,[46],3.45 µM
same,TGI,[46],27.3 µM
same,GI50,[47],5.91 µM
same,TGI,[47],> 100 µM
same,GI50,[48],> 100 µM
same,TGI,[48],> 100 µM
same,GI50,[49],1 µM
same,TGI,[49],32.4 µM
same,GI50,[50],2.65 µM
same,TGI,[50],> 100 µM
same,GI50,[51],29.1 µM
same,TGI,[51],> 100 µM
same,GI50,[52],6.08 µM
same,TGI,[52],> 100 µM
same,GI50,[53],2.72 µM
same,TGI,[53],95.2 µM
same,GI50,[54],3.58 µM
same,TGI,[54],14.2 µM
same,GI50,[55],3.58 µM
same,TGI,[55],22.1 µM
same,GI50,[56],10.8 µM
same,TGI,[56],37.3 µM
same,GI50,[57],13.2 µM
same,TGI,[57],> 100 µM
